Patent US20190248834A1, “ENDOMORPHIN-2, TETRAPEPTIDE DERIVATIVES THEREOF, AND USES THEREOF” (priority 2016, published 2019)
Non-standard residues stand in square brackets, D forms with d. pGlu = O=C1CC[C@@H](C(=O)O)N1

Tests used:
Format in all cases: in vivo, human
[1] = tested on: knee pain; experiment: Example 32: analgesic effect on knee pain after housework, topical; conditions: 1% (w/v) in WEP442, topical
Source text: A subject with discomforting knee pain in the evening after cleaning their own house for several hours topically applied a composition containing 1% (w/v) of N-Ac-Tyr-Pro-Phe-Phe-NH2 (SEQ ID NO: 23) in WEP442.

[2] = tested on: jammed middle finger, pain and swelling; experiment: Example 15: analgesic effect on injured fingers, topical; conditions: 1% (w/v) in WEP442, topical
Source text: A subject, jammed their middle finger causing severe pain and swelling (inflammation). The subject topically applied a composition containing 1% (w/v) N-Ac-Tyr-Pro-Phe-Phe-NH2 ([…]) in WEP442 to the affected finger.

[3] = tested on: psoriatic arthritis; experiment: Example 73: analgesic effect on psoriatic arthritis of hands, fingers and ankles, topical; conditions: 0.5% (w/v) in WEP442, topical
Source text: A subject had psoriatic arthritis of the hands and finger joints and ankle joints for 4 years.

[4] = tested on: chronic knee pain; experiment: Example 46: analgesic effect on chronic knee pain from post-trauma, topical; conditions: 1% (w/v) in WEP442, topical
Source text: Onset of pain occurred in adulthood […], worsening to a level that compromised their performance as a hospital nurse.

[5] = tested on: jaw pain after tooth extraction; experiment: Example 28: analgesic effect on dental extraction pain, topical
Description: A subject had substantial pain in the left mandibular jaw that started about 3 hours after extraction of a left mandibular molar tooth. […] Only negligible discomfort was perceptible thereafter.

[6] = tested on: moderate lower back pain; experiment: Example 23: analgesic effect on lower back pain, topical; conditions: 1% (w/v) in WEP442, topical
Source text: A subject, working as a house cleaner, complained of moderate lower back pain at the end of a work day.

[7] = tested on: severe pain on the left hip; experiment: Example 89: analgesic effect on hip pain, topical; conditions: 1% (w/v) in WEP442, topical
Source text: A subject had severe lumber stenosis (lower back arthritis) for about 3 years caused by a fall from a ladder 7 years earlier. The subject had been pain free from lower back arthritis due to weekly acupuncture treatment, usually at 10 AM every Tuesday. On one Friday evening, the subject suddenly developed severe pain on the left hip and the pain persisted.

[8] = tested on: knee pain; experiment: Example 42: analgesic effect on knee pain following twisting of leg, topical; conditions: 1% (w/v) in WEP442, topical
Source text: A subject, twisted their left leg during work on building construction, causing substantial pain in the left knee. The pain persisted into the late evening, preventing them from falling asleep.

[9] = tested on: sore subcutaneous lipomas; experiment: Example 35: analgesic effect on soreness of subcutaneous lipomas, topical; conditions: 1% (w/v) in WEP442, topical
Source text: A subject with many subcutaneous lipomas on their arms, torso and thighs that often become painfully sore after being bumped against objects during the course of daily activities, topically applied to tenderly sore lipomas a composition containing 1% (w/v) N-Ac-Tyr-Pro-Phe-Phe-NH2 (SEQ ID NO: 23) in WEP442. Such applications were repeated multiple times over a period of two months.

[10] = tested on: sprain of the left ankle; experiment: Example 21: analgesic effect on ankle sprain, topical
Source text: A subject, suffered a sprain of the left ankle after stepping on a stone while hiking, twisting the ankle inwardly. Ten days later, after wearing an elastic ankle support daily, pain from the injury persisted. The subject topically applied an anhydrous composition containing 0.7% (w/v) N-Ac-Tyr-Pro-Phe-Phe-NH2 (SEQ ID NO: 23) in EP73, formulated as described in Example 2. […] Upon arising the next morning, the subject experienced mild ankle pain, whereupon the composition was again applied. […] The subject was discomfort free thereafter.

[11] = tested on: pain from MTSS; experiment: Example 22: analgesic effect on medial tibial stress syndrome, topical
Source text: A small statured person, caretaker of an over-weight disabled elderly person, every evening suffers pain from MTSS of the left lower leg that is due to repeated use of the left leg to lift their patient throughout the day. Their sleeping has been repeatedly disturbed by the pain. […] They followed this sequence of procedures daily for one week work shift with the same result of rapid absolute relief of pain. During the week of being off from work, the MTSS is absent.

[12] = tested on: headache; experiment: Example 52: analgesic effect on headache; conditions: 1% (w/v) in WEP442, topical
Source text: At 5:30 p.m., the headache pain was becoming more intense, at which time they topically applied a composition containing 1% (w/v) of N-Pg-Tyr-Pro-Phe-Phe-NH2 (SEQ ID NO: 44) in WEP442 to the entire forehead and temporal areas. […] There was no recurrence of symptoms over the next 3 days of follow-up time.

[13] = tested on: headache; experiment: Example 44: analgesic effect on headache, topical
Source text: A subject, experienced a headache that began on the right temporofrontal area. Within about a half hour the headache pain area expanded to include the left temporofrontal area and both orbital areas. The intensity of pain increased simultaneously to a degree that caused them to remove themself from their sedentary occupation. Available to them was a composition containing 1% (w/v) of N-Pg-Tyr-Pro-Phe-Phe-NH2 (SEQ ID NO: 44) in WEP442, which they topically applied to all the above areas, keeping their eyes closed until the lids dried. Pain relief was detected after about 5 minutes, at which time a second application of the solution was made. Within another 5 minutes, pain relief was substantial, allowing them to return to their occupation.

[14] = tested on: acute right temporal nauseating headache; experiment: Example 49: topical treatment of severe right temporal headache; conditions: 1% (w/v) in WEP442, topical
Source text: They were given, by a nearby companion, a solution composition containing 1% (w/v) of N-Pg-Tyr-Pro-Phe-Phe-NH2 (SEQ ID NO: 44) in WEP442, which they topically applied to the right temporal area, right closed eyelids, entire forehead and right eyebrow.

[15] = 0.7% (w/v) in EP73, first topical application
[16] = 0.7% (w/v) in EP73, second application

## CC(=O)N[C@@H](Cc1ccc(O)cc1)C(=O)N1CCC[C@H]1C(=O)N[C@@H](Cc1ccccc1)C(=O)N[C@@H](Cc1ccccc1)C(N)=O [N-Ac-Tyr-Pro-Phe-Phe-NH2]
[1]
  duration of pain relief: 5 to 7 h
  pain relief: Total relief of pain
  time to pain relief: ≤ 1 min
[2]
  relief of pain and swelling: pain and much of the swelling disappeared
  time to relief: almost immediately
[3]
  duration of pain relief: approximately 6 hours
  pain relief: almost complete relief of pain
[4]
  duration of absence of pain: 8 h
  pain relief: complete absence of pain
[5]; 1% (w/v) in WEP442, topical
  time to pain relief: less than 1 minute
[5]; 1% (w/v) in WEP442, topical to facial-lower jaw skin
  pain relief: complete relief of pain
[6]
  pain relief: almost complete relief of pain
  time to pain relief: 1 to 2 min
[7]
  analgesic effect grade: 4+ (4+ (90-100%): complete relief or eradication of pain for more than 4 hours)
  pain relief: the pain disappeared
  time to pain relief: about 2 minutes
  time without return of pain: > 12 h
[8]
  pain relief: complete relief of pain
  recurrence: pain free the next morning and thereafter
  time to pain relief: less than 1 minute
[9]
  time to relief: ≤ 1 min
[9]; repeated over two months
  relief of soreness: relieved all feelings of soreness
[10]; 0.7% (w/v) in EP73, application next morning, within about 5 minutes
  pain relief: no discomfort was discernible
[10]; [15]
  pain relief: relieved almost completely
  time to pain relief: 3 to 4 min
[10]; [16]
  pain relief: complete relief of all discomfort
  time to pain relief: ≤ 5 min
[11]; 1% (w/v) in WEP442, single topical application
  pain relief: completely relieved the pain
[11]; 1% (w/v) in WEP442, topical
  duration of pain relief: No pain occurred until the next evening
  time to pain relief: ≤ 1 min

## N-Pg-Tyr-Pro-Phe-Phe-NH2 ([pGlu]YPFF-NH2; SMILES NC(=O)[C@H](Cc1ccccc1)NC(=O)[C@H](Cc1ccccc1)NC(=O)[C@@H]1CCCN1C(=O)[C@H](Cc1ccc(O)cc1)NC(=O)[C@@H]1CCC(=O)N1)
[12]
  pain relief: all pain, and heavy feelings were completely gone
  time to pain relief: ≤ 30 s
  time without recurrence of symptoms (follow-up): ≥ 3 days
[13]; 1% (w/v) in WEP442, after second application
  pain relief: Total relief of pain
[13]; 1% (w/v) in WEP442, first topical application
  time to detected pain relief: about 5 minutes
[13]; 1% (w/v) in WEP442, topical
  recurrence: no recurrence of pain
[14]
  pain relief: the headache subsided completely
  recurrence: did not return
  time to pain relief: 3 to 5 min
